Experimental data taken from patent US11110082B2, “Tyrosine kinase inhibitors” (Rigel Pharmaceuticals, Inc., priority 2016, dated 2021).
pEC50: −log10 of the molar value.

Each compound was assayed against T1, MerTK (Homo sapiens, UniProt Q12866) (assay: PAKT HTRF-HUVEC assay (pAkt Ser473 HTRF after anti-human MerTK-XL stimulation)). Conditions: HUVEC cells, 1 hour compound, stimulated with anti-human MerTK-XL 1 ug/mL for 10 minutes, read-out: inhibition of MerTK.
T1 construct: Seed HUVECs (10K cells/well) in EBM-2 complete media; host or cells: HUVEC (primary human umbilical vein endothelial cells)
T1 sequence (Q12866 21-999): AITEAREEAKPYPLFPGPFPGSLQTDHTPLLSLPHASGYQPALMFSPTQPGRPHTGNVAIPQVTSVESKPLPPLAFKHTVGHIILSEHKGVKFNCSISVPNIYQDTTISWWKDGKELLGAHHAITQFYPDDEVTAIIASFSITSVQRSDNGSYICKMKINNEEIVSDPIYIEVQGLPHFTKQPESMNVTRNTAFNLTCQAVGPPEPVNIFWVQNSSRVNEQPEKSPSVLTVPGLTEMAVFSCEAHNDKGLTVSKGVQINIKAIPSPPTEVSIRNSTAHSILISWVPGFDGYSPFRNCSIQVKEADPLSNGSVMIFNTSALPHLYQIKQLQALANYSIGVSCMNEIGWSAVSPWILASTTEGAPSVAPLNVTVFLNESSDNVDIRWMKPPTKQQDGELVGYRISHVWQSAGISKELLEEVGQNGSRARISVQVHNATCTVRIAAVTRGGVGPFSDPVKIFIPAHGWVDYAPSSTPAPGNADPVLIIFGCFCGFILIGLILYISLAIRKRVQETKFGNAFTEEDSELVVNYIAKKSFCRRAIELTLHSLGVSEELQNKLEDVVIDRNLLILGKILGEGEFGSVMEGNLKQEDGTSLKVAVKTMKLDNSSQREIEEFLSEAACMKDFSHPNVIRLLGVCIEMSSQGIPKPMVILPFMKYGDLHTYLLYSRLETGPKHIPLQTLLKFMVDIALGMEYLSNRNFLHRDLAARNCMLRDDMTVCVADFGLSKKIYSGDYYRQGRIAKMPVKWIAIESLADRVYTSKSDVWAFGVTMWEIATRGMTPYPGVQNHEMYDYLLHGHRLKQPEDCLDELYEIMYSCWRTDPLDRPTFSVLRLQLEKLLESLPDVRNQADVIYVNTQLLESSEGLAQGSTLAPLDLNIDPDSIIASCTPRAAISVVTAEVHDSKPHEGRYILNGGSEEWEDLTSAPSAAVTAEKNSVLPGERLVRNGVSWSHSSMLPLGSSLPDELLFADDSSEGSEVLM
Type: cell-based
Summary of the method: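 HUVECs starved 3-4 h in basal medium, preincubated with compound 1 h at 37° C, then stimulated 10 min with cross-linked anti-human MerTK antibody (final 1 ug/mL). Lysates read for pAkt (Ser473) by HTRF; EC50 from curve fitting.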

SMILES | pEC50
CCCCNc1ncc2c3ccc(N4C[C@@H](C)N(C)C[C@@H]4C)cc3c(=O)n([C@H]3CC[C@H](O)CC3)c2n1 [Compound 78, trans-3-(Butylamino)-5-(4-hydroxycyclohexyl)-8-((2S,5R)-2,4,5-trimethylpiperazin-1-yl)pyrimido[4,5-c]isoquinolin-6(5H)-one] | 8.05
CCCCNc1ncc2c3ccc(N4C[C@@H](C)N(C)C[C@@H]4C)cc3c(=O)n(C3CCC(=O)CC3)c2n1 [Compound 79, 3-(Butylamino)-5-(4-oxocyclohexyl)-8-((2S,5R)-2,4,5-trimethylpiperazin-1-yl)pyrimido[4,5-c]isoquinolin-6(5H)-one] | 6.81
CCCCNc1ncc2c3ccc(N4CCn5ncnc5C4)cc3c(=O)n([C@H]3CC[C@H](O)CC3)c2n1 [Compound 80, trans-3-(Butylamino)-8-(5,6-dihydro-[1,2,4]triazolo[1,5-a]pyrazin-7(8H)-yl)-5-(4-hydroxycyclohexyl)pyrimido [4,5-c]isoquinolin-6(5H)-one] | 7.46
CCCCNc1ncc2c3ccc(N4CCN5CCC4CC5)cc3c(=O)n([C@H]3CC[C@H](O)CC3)c2n1 [Compound 81, trans-8-(1,4-Diazabicyclo[3.2.2]nonan-4-yl)-3-(butylamino)-5-(4-hydroxycyclohexyl)pyrimido[4,5-c]isoquinolin-6(5H)-one] | 7.86
CCCCNc1ncc2c3ccc(N4CCN5CCC4CC5)cc3c(=O)n(C3CCC(=O)CC3)c2n1 [Compound 82, 8-(1,4-Diazabicyclo[3.2.2]nonan-4-yl)-3-(butylamino)-5-(4-oxocyclohexyl)pyrimido[4,5-c]isoquinolin-6(5H)-one] | 6.66
CCCCNc1ncc2c3ccc(N4CCNCC4)cc3c(=O)n([C@H]3CC[C@H](O)CC3)c2n1 [Compound 83, trans-3-(Butylamino)-5-(4-hydroxycyclohexyl)-8-(piperazin-1-yl)pyrimido[4,5-c]isoquinolin-6(5H)-one] | 7.50
CCCCNc1ncc2c3ccc(N4CCNCC4)cc3c(=O)n(C3CCC(=O)CC3)c2n1 [Compound 84, 3-(Butylamino)-5-(4-oxocyclohexyl)-8-(piperazin-1-yl)pyrimido[4,5-c]isoquinolin-6(5H)-one] | 6.54
CN1CCN(c2ccc3c(c2)c(=O)n([C@H]2CC[C@H](O)CC2)c2nc(NC4CC(F)(F)C4)ncc32)CC1 [Compound 85, trans-3-((3,3-Difluorocyclobutyl)amino)-5-(4-hydroxycyclohexyl)-8-(4-methylpiperazin-1-yl)pyrimido[4,5-c]isoquinolin-6(5H)-one] | 6.66
CCCCNc1ncc2c3ccc(N4CCN(C)CC4)cc3c(=O)n(C3CCC(C)(O)CC3)c2n1 (stereo not drawn) [Compound 86, trans-3-(Butylamino)-5-(4-hydroxy-4-methylcyclohexyl)-8-(4-methylpiperazin-1-yl)pyrimido[4,5-c]isoquinolin-6(5H)-one] | 7.70
CN1CCN(c2ccc3c(c2)c(=O)n([C@H]2CC[C@H](O)CC2)c2nc(NCC4CC4)ncc32)CC1 [Compound 87, trans-3-((Cyclopropylmethyl)amino)-5-(4-hydroxycyclohexyl)-8-(4-methylpiperazin-1-yl)pyrimido[4,5-c]isoquinolin-6(5H)-one] | 6.94
CCCCNc1ncc2c3ccc(N4CCN(C)CC4)cc3c(=O)n(C3CC4(CC(O)C4)C3)c2n1 (stereo not shown) [Compound 88, 3-(Butylamino)-5-(6-hydroxyspiro[3.3]heptan-2-yl)-8-(4-methylpiperazin-1-yl)pyrimido[4,5-c]isoquinolin-6(5H)-one] | 7.29
CCCCNc1ncc2c3ccc(N4CCN(C)CC4)cc3c(=O)n([C@H]3CC[C@@](C)(O)CC3)c2n1 [Compound 89, cis-3-(Butylamino)-5-(4-hydroxy-4-methylcyclohexyl)-8-(4-methylpiperazin-1-yl)pyrimido[4,5-c]isoquinolin-6(5H)-one] | 6.82
CCCCNc1ncc2c3ccc(N4CCN(C)[C@H](C)C4)cc3c(=O)n([C@H]3CC[C@H](O)CC3)c2n1 [Compound 90, trans-3-(Butylamino)-8-((R)-3,4-dimethylpiperazin-1-yl)-5-(4-hydroxycyclohexyl)pyrimido [4,5-c]isoquinolin-6(5H)-one] | 7.88
CCC1(CNc2ncc3c4ccc(N5CCN(C)CC5)cc4c(=O)n([C@H]4CC[C@H](O)CC4)c3n2)CCC1 [Compound 91, trans-3-(((1-Ethylcyclobutyl)methyl)amino)-5-(4-hydroxycyclohexyl)-8-(4-methylpiperazin-1-yl)pyrimido[4,5-c]isoquinolin-6(5H)-one] | 5.41
CN1CCN(c2ccc3c(c2)c(=O)n([C@H]2CC[C@H](O)CC2)c2nc(NCC4CCC4)ncc32)CC1 [Compound 92, trans-3-((Cyclobutylmethyl)amino)-5-(4-hydroxycyclohexyl)-8-(4-methylpiperazin-1-yl)pyrimido[4,5-c]isoquinolin-6(5H)-one] | 7.41
CCC(F)(F)CNc1ncc2c3ccc(N4CCN(C)CC4)cc3c(=O)n([C@H]3CC[C@H](O)CC3)c2n1 [Compound 93, trans-3-((2,2-Difluorobutyl)amino)-5-(4-hydroxycyclohexyl)-8-(4-methylpiperazin-1-yl)pyrimido[4,5-c]isoquinolin-6(5H)-one] | 6.45
CCC1(CNc2ncc3c4ccc(N5CCN(C)CC5)cc4c(=O)n([C@H]4CC[C@H](O)CC4)c3n2)CC1 [Compound 94, trans-3-(((1-Ethylcyclopropyl)methyl)amino)-5-(4-hydroxycyclohexyl)-8-(4-methylpiperazin-1-yl)pyrimido[4,5-c]isoquinolin-6(5H)-one] | 5.96
CN1CCN(c2ccc3c(c2)c(=O)n([C@H]2CC[C@H](O)CC2)c2nc(NCCCC(F)(F)F)ncc32)CC1 [Compound 95, trans-5-(4-Hydroxycyclohexyl)-8-(4-methylpiperazin-1-yl)-3-((4,4,4-trifluorobutyl)amino)pyrimido [4,5-c]isoquinolin-6(5H)-one] | 5.41
CN1CCN(c2ccc3c(c2)c(=O)n([C@H]2CC[C@H](O)CC2)c2nc(NCCC4CC4)ncc32)CC1 [Compound 96, trans-3-((2-Cyclopropylethyl)amino)-5-(4-hydroxycyclohexyl)-8-(4-methylpiperazin-1-yl)pyrimido[4,5-c]isoquinolin-6(5H)-one] | 7.38
CN1CCN(c2ccc3c(c2)c(=O)n(C2CCC(C)(O)CC2)c2nc(NCC4CC4)ncc32)CC1 (stereo not drawn) [Compound 97, trans-3-((Cyclopropylmethyl)amino)-5-(4-hydroxy-4-methylcyclohexyl)-8-(4-methylpiperazin-1-yl)pyrimido[4,5-c]isoquinolin-6(5H)-one] | 7.16
CN1CCN(c2ccc3c(c2)c(=O)n([C@H]2CC[C@](C)(O)CC2)c2nc(NCCC4CC4)ncc32)CC1 [Compound 98, trans-3-((2-Cyclopropylethyl)amino)-5-(4-hydroxy-4-methylcyclohexyl)-8-(4-methylpiperazin-1-yl)pyrimido[4,5-c]isoquinolin-6(5H)-one] | 7.45
O=c1c2cc(N3CCC(N4CCCC4)CC3)ccc2c2cnc(NCC3CC3)nc2n1[C@H]1CC[C@H](O)CC1 [Compound 99, trans-3-((Cyclopropylmethyl)amino)-5-(4-hydroxycyclohexyl)-8-(4-(pyrrolidin-1-yl)piperidin-1-yl)pyrimido[4,5-c]isoquinolin-6(5H)-one] | 7.02
O=c1c2cc(N3CCn4ncnc4C3)ccc2c2cnc(NCC3CC3)nc2n1[C@H]1CC[C@H](O)CC1 [Compound 101, trans-3-((Cyclopropylmethyl)amino)-8-(5,6-dihydro-[1,2,4]triazolo[1,5-a]pyrazin-7(8H)-yl)-5-(4-hydroxycyclohexyl)pyrimido [4,5-c]isoquinolin-6(5H)-one] | 6.53
O=c1c2cc(N3CCN4CCC[C@H]4C3)ccc2c2cnc(NCC3CC3)nc2n1[C@H]1CC[C@H](O)CC1 [Compound 102, trans-3-((Cyclopropylmethyl)amino)-8-((S)-hexahydropyrrolo[1,2-a]pyrazin-2(1H)-yl)-5-(4-hydroxycyclohexyl)pyrimido [4,5-c]isoquinolin-6(5H)-one] | 6.91
O=c1c2cc(N3CCN4CCC[C@@H]4C3)ccc2c2cnc(NCC3CC3)nc2n1[C@H]1CC[C@H](O)CC1 [Compound 103, trans-3-((Cyclopropylmethyl)amino)-8-((R)-hexahydropyrrolo[1,2-a]pyrazin-2(1H)-yl)-5-(4-hydroxycyclohexyl)pyrimido [4,5-c]isoquinolin-6(5H)-one] | 6.89
